This is an account of results in article PMC5746060, “General and Modular Strategy for Designing Potent, Selective, and Pharmacologically Compliant Inhibitors of Rhomboid Proteases” (Cell Chemical Biology, 2017).

Starred links: 1 amine or outer side, 2 acyl side, 3 side chain; linkers in the order of their positions; H or OH if unused. Non-standard residues stand in square brackets, D forms with d. Residues, ends and D or L forms follow the SMILES beside them. *: point of attachment. NH(4-phenylbutyl) = c1ccc(CCCCN*)cc1; X1 = C[C@H](N[*:1])C(=O)C(=O)[*:2]; NHPhenethyl = c1ccc(CCN*)cc1

What is called IC50 is the concentration needed to halve the response being measured.

One experiment deals with T1, endogenous GlpG (Escherichia coli, UniProt P09391).
T1 construct: E. coli expressing endogenous levels of GlpG; endogenous in cells; host or cells: E. coli K12 NR698 (permeabilised outer membrane)
T1 sequence (P09391 whole entry): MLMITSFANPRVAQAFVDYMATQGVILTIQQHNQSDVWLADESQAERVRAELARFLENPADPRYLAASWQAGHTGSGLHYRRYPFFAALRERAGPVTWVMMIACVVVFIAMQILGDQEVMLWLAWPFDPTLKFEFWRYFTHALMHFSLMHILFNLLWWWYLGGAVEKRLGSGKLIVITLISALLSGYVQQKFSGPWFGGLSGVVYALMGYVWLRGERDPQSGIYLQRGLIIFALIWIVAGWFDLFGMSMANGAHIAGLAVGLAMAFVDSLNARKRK
Briefly: inhibition of endogenous GlpG in live E. coli (LacYTM2 substrate cleavage, western blot). In kind it is cell-based. Conditions: live E. coli NR698, substrate MBP-FLAG-LacYTM2-Trx; read-out: IC50 In Vivo (GlpG). Here is the method: (§1) The substrate MBP-FLAG-LacYTM2-Trx ([Strisovsky et al., 2009]) was expressed in wild-type E. coli NR698 with genetically permeabilized outer membrane ([Ruiz et al., 2005]) in the presence of increasing concentrations of inhibitors as described in STAR Methods. Substrate cleavage was measured in cell lysates by immunoblotting for FLAG and quantified using near-infrared fluorescence. The reported in vivo IC50 values are best-fit means with SD representative of 2–3 measurements. DMSO, dimethylsulfoxide vehicle control; KO, E. coli glpG::tet. […] The substrate AmyESP-MBP-FLAG-LacYTM2-Trx-HA was expressed in Bacillus subtilis 168 (ydcA::neo, xdkE::AmyESP-MBP-LacYTM2-Trx(erm, lin)) (BS87) in the presence of increasing concentrations of inhibitors as described in STAR Methods. Substrate cleavage was detected in cell lysates by immunoblotting for FLAG and detection by near-infrared fluorescence. […] This treatment was necessary because the specific cleavage product could not be resolved sufficiently well from the non-specific bands to be integrated separately. DMSO, dimethylsulfoxide vehicle control; YqgP KO, Bacillus subtilis 168 (ydcA::neo, yqgP::tet, xdkE::AmyESP-MBP-LacYTM2-Trx(erm, lin)) (BS88).

Another experiment addresses T2, endogenous YqgP (Bacillus subtilis, UniProt P54493).
T2 construct: cleaved to about 75% conversion by the endogenous YqgP; endogenous in cells; host or cells: Bacillus subtilis 168 ydcA::neo, xkdE::substrate (BS87)
Briefly: inhibition of endogenous YqgP in live B. subtilis (LacYTM2 substrate cleavage, western blot). It is filed as cell-based, Bacillus subtilis 168. As to conditions: for % substrate conversion: YqgP WT (BS87). The protocol:
as §1
We then extended the range of organisms to Bacillus subtilis, a representative of Gram-positive bacteria, which have a thick cell wall and include major pathogens such as Staphylococcus, Listeria, Streptococcus, and others. Since the endogenous substrate of the B. subtilis rhomboid protease YqgP is unknown, and no robust and rescuable phenotypes have been reported for YqgP, we focused on inhibition of cleavage of a model substrate.
For measuring the inhibition of YqgP in vivo, the B. subtilis strains BS87 and its yqgP knock-out derivative BS88, generated in this work (see Constructs and Cloning section), were used as follows. The chimeric LacYTM2 substrate AmyEsp-MBP-FLAG-LacYTM2-Trx-HA (this work) was expressed under control of xylose promoter from the xdkE genomic locus. Fresh LB medium, supplemented with appropriate antibiotic, was inoculated with a few colonies of the B. subtilis strain grown overnight on selective LB agar plate and pre-culture was grown for 2 h at 37°C to OD600 = 1. Pre-culture was then diluted with fresh LB medium to the density of OD600 = 0.05. At this point, the expression of LacYTM2 was induced by adding 1% (w/v) D-(+)-xylose (Sigma), rhomboid inhibitors were added at a range of concentrations, and the cultures were further incubated for 2.5 h at 37°C (reaching OD600 ∼ 1). Steady-state conversion of the substrate was evaluated by western blotting with near-infrared fluorescence detection as described ([Ticha et al., 2017]), substracting the intensity of non-specific bands, closely co-migrating with the specific rhomboid-formed N-terminal cleavage product of the substrate.
A general note: A western blot detects proteins with antibodies after separation by electrophoresis.

Another experiment has as its system TmROM. Briefly: activity-based probe competition assay, rhomboid panel. In kind it is biochemical, Thermotoga maritima. Conditions: 50 μM. The text has this: Any enzyme inhibitors to be used as specific tools for cell biology or as starting points for drug development must show sufficient level of selectivity toward their intended target. This is particularly important for compounds that react with the catalytic nucleophile common to many serine hydrolases. Only limited tests of selectivity have been conducted for the currently used rhomboid inhibitors isocoumarins, β-lactams and β-lactones, at best interrogating them against trypsin or chymotrypsin ([Pierrat et al., 2011], [Vosyka et al., 2013]). […]
Figure 5 Selectivity of Peptidyl Ketoamides (A) Selectivity of compounds 9, 10, and 11 for nine rhomboid proteases was profiled using activity-based probe competition assay at 50 μM and 0.5 μM concentration. […] (B) Selectivity of compounds 9, 10, and 11 against human serine hydrolases was analyzed using EnPlex as described ([Bachovchin et al., 2014]).
For inhibitor selectivity profiling against rhomboid proteases ([Wolf et al., 2015]), 400 ng of a purified protein preparation of E. coli GlpG was diluted in 30 μL of reaction buffer (20 mM HEPES, pH 7.4, with 0.05% (w/v) DDM). […] Gels were scanned on a Typhoon Trio+ and analyzed using ImageJ. The intensity of each rhomboid protease band calculated by ImageJ was normalized against its corresponding DMSO-treated counterpart (100% activity) to indicate the residual activity left after inhibition. […]

T2 sequence (P54493 whole entry): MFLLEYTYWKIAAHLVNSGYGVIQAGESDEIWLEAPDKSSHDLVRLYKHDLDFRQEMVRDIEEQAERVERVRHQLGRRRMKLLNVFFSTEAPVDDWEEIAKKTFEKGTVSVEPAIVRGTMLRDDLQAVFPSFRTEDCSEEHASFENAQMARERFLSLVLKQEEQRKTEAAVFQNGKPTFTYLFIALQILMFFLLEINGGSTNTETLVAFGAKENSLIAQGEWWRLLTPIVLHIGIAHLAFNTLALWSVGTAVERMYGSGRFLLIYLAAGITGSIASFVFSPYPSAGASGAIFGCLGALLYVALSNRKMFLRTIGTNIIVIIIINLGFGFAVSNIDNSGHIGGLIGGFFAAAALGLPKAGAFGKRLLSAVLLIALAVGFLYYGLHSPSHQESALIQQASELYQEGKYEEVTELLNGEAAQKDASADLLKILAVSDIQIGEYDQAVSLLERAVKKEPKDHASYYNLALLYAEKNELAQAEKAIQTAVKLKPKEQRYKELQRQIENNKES

For the compound `CC(=O)N[C@@H](CCCNC(=N)N)C(=O)N[C@H](C(=O)N[C@@H](CCCNC(=N)N)C(=O)N[C@@H](Cc1c[nH]cn1)C(=O)N[C@@H](C)C(=O)C(=O)NCCCCc1ccccc1)C(C)C` [compound 11, Ac-RVRHA-CONH-phenylbutyl] (Ac-RVRH[X1]-{NH(4-phenylbutyl)}), the IC50 on endogenous GlpG is 2.7 ± 0.1 nM; on endogenous YqgP, 5 to 10 nM. In addition, the “% substrate conversion” value came out at 73% on endogenous YqgP (0.6 nM compound 11); 67% at endogenous YqgP (1.2 nM compound 11); 54% on endogenous YqgP (2.5 nM compound 11); 52% on endogenous YqgP (5 nM compound 11); 7% on endogenous YqgP (10 nM compound 11); 4% on endogenous YqgP (20 nM compound 11). For the same compound, the “% substrate conversion” value on endogenous YqgP (50 nM compound 11) is 0%. Besides, the “inhibition of substrate cleavage” value on endogenous YqgP (50 nM in growth media) is on record as “completely inhibited”. Further, the “inhibition of ABP labeling of TmROM” value in the experiment with TmROM is listed as “only partially inhibited”.
On to `CC(=O)N[C@@H](CCCNC(=N)N)C(=O)N[C@H](C(=O)N[C@@H](CCCNC(=N)N)C(=O)N[C@@H](Cc1c[nH]cn1)C(=O)N[C@@H](C)C(=O)C(=O)NCCc1ccccc1)C(C)C` [compound 9, Ac-RVRHA-CONH-phenylethyl] (Ac-RVRH[X1]-NHPhenethyl), for which the half-inhibitory concentration (IC50) on endogenous GlpG turned out to be 8.8 ± 0.4 nM. In addition, the “inhibition of ABP labeling of TmROM” value with TmROM is on record as “only partially inhibited”.
